Experimental data from US10730833B2, “Synthesis of diindolylmethanes and indolo[3,2-b]carbazoles, compounds formed thereby, and pharmaceutical compositions containing them” (Wisconsin Alumni Research Foundation, priority 2014, dated 2020).

Biological target: AhR (Homo sapiens (Human), UniProt P35869)
Assay: ethoxyresorufin-O-deethylase (EROD) assay, AhR activation in HepG2 cells
Type: cell-based
Experimental: The human Hep G2 cell line from the Small Molecule Screening and Synthesis Facility (UWCCC, Madison, Wis.) and was maintained in DMEM medium supplemented with 10% FBS. Cells were incubated at 37° C. in a humidified atmosphere supplemented with 5% CO2.
Preparation of cells: Cells were cleaved from T75 flasks with 0.05% trypsin. The cells were then collected by spinning at 1 g for 4 min. Excess media containing trypsin was removed from the pellet, which was then re-suspended in growth media. The cells were then counted using a hemocytometer. Cells were plated in sterile 96-well clear bottom black culture plates at a density of 20,000 cells per well in 0.1 mL of media. The cells were then incubated for 24 h at 37° C. in a humidified atmosphere supplemented with 5% CO2.
The ethoxyresorufin-O-deethylase (EROD) assay was performed on cell cultures of human Hep G2 cells. Briefly, 24 h after plating, cells in 96-well plates were treated with AhR agonists and allowed to incubate for 24 h. Each well was then rinsed with 200 uL of PBS buffer twice. To each well was then added 100 uL of 150 nM solution of 7-ethoxyresurufin and allowed to incubate for 2 h. Fluorescence measurements were obtained with a Safire II micro plate reader with excitation at 520 nm with a 25 nm bandwidth and emission at 595 nm with a 20 nm bandwidth.
The bioactivity of malassezin analogs was then investigated. The well-documented ethoxyresorufin-O-deethylase (EROD) assay was used to determine the EC50 values of the compounds towards AhR activation in HepG2 cells. Donato, M. T.; Gomezlechon, M. J.; Castell, J. V. Anal. Biochem. 1993, 213, 29; van Tonder, J. J., University of Pretoria Z.A., Thesis, 2011. This assay measures the induction of cytochrome P450-1A1 (CYP1A1), which is a major outcome of AhR activation. Whyte, J. J.; Jung, R. E.; Schmitt, C. J.; Tillitt, D. E. Crit. Rev. Toxicol. 2000, 30, 347. CYP1A1 selectively converts 7-ethoxyresorufin to the fluorescent product resorufin.

AhR, sequence (P35869 11-848): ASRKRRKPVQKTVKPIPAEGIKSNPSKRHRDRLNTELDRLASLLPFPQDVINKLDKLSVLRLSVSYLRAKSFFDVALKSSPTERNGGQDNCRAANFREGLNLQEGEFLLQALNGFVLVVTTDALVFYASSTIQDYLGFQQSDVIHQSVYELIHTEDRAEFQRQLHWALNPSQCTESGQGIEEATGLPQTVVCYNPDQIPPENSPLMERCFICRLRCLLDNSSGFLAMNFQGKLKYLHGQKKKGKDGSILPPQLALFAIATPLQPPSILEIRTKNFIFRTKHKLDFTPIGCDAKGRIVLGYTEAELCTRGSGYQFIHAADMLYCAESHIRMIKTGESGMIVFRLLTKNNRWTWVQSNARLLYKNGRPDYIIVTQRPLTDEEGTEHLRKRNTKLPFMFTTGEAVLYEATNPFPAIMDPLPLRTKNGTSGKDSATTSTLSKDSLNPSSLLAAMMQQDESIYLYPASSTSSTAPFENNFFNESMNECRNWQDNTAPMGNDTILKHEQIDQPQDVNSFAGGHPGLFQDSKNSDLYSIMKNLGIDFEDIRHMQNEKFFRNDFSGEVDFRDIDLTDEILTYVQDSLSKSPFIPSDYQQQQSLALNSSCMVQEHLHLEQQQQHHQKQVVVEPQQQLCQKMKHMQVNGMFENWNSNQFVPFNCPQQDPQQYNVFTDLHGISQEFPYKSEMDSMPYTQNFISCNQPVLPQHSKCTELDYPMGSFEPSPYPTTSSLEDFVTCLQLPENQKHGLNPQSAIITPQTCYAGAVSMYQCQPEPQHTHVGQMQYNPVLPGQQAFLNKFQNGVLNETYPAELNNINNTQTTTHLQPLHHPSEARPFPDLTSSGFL

SMILES	AhR potency (EC50) compared with malassezin, the positive control
O=Cc1c(Cc2c[nH]c3ccc(Cl)cc23)[nH]c2ccccc12 [Compound 11a]	more potent than the positive control
O=Cc1c(Cc2c[nH]c3c(Cl)cccc23)[nH]c2ccccc12 [Compound 11b]	slightly weaker agonist
COc1ccc2[nH]cc(Cc3[nH]c4ccccc4c3C=O)c2c1 [Compound 11c]	behaved similarly to malassezin
Cn1cc(Cc2[nH]c3ccccc3c2C=O)c2ccccc21 [Compound 11d]	about five times lower than that of malassezin
